US5624924A, “Quinobenzothiazine antineoplastic agents” (priority 1994, dated 1997)
Converted amounts (≈) assume the structure as drawn. Where a name gives a salt, the structure may show the parent alone. Read-outs that look alike come from different tables or passages of the source.

Experiments:
[1] = tested on: A549 human lung cancer cell line; experiment: In vitro cytotoxicity (MTT), A549; assay type: cell-based; details: A549, 72 h
Description: (§1) Metabolic activity was measured by the cells' ability to reduce the tetrazolium dye, 3-(4,5-dimethylthiazol-2-yl)-2,5-diphenyltetrazolium bromide (MTT), to a quantifiable colored formasan derivative. Surviving cells reduce the MTT dye. The inhibitory concentrations of killing 50% of the cells (IC50 s) were calculated. Testing was in accord with the following protocol:
(§2) Test compounds and a reference antineoplastic agent, ADRIAMYCIN (doxorubicin hydrochloride), were dissolved in dimethyl sulfoxide (DMSO) and diluted, first with Earle's Balanced Salt Solution, followed by culture medium, to twice the highest concentration of the compound to be tested. From this concentrated stock, two-fold serial dilutions were prepared in 96-well microtiter trays, each well containing twice the desired final concentration of the compound. Each concentration was tested in triplicate and compared to triplicate drug-free controls.
(§3) The cells were grown in the same medium used for diluting the compounds. Adherent cells were harvested by trypsinization according to the following procedure:
(§4) After harvesting by trypsinization, viable cell counts were determined and cell density was adjusted to 25,000 cells/mL. Inoculum (0.1 mL) was then added to each well for a final concentration of 2,500 cells per well. Addition of the inoculum was used to dilute the test compounds to the desired concentration.
(§5) Microtiter trays were incubated for three days at 36° C. in a humidified atmosphere containing 5% carbon dioxide.
(§6) After three days, 20 microliters of 5 mg/mL MTT in phosphate-buffered solution were added to each well of the microtiter trays. The microtiter trays were then returned to the incubator for two to four hours to allow the surviving cells to reduce the dye. After this incubation, both the medium and the unreduced dye were removed by aspiration. DMSO was added to each well to dissolve the water-insoluble, colored end product of the dye reduction for spectrophotometric measurement at 570 nm.
(§7) The results obtained which clearly show the cytotoxicity of the compounds of Examples 5, 6, 7 and 8 against […] tumor cell lines A549, HCT-8, HT-29 and P388-D1, are illustrated in Table 1. (A549 is a human lung cancer cell line; HCT-8 is a human colon cancer cell line; HT-29 is a human colon cancer cell line; and P388-D1 is a mouse leukemia cell line.)

[2] = tested on: HT-29 human colon cancer cell line; experiment: In vitro cytotoxicity (MTT), HT-29; assay type: cell-based; details: HT-29, 72 h
Description: as §1, §2, §3, §4, §5, §6, §7

[3] = tested on: P388-D1 mouse leukemia cell line; experiment: In vitro cytotoxicity (MTT), P388-D1; assay type: cell-based; details: Mus musculus, P388D1, 72 h, read-out: In Vitro Cytotoxicity (IC50), P388-D1
Description: as §1, §2, §3, §4, §5, §6, §7

[4] = tested on: C-26 colon adenocarcinoma; experiment: In vivo activity against C-26 implanted subcutaneously (Example 44); set-up: species or system mouse; details: 10 mg/kg, compound 37 days 1-9, BCNU days 1, 5, 9
Description: (§8) The title compound of Example 37 above was tested against solid tumors in mice, using 1,3-bis(2-chloroethyl)-1-nitrosourea (BCNU) as a positive control. The tumor lines were M5076, an ovarian sarcoma implanted intraperitoneally (IP), and C-26, a colon adenocarcinoma, implanted intraperitoneally (IP) and subcutaneously (SC) in separate trials.
(§9) All drugs were administered in 5% aqueous dextrose or other suitable diluent. Drug efficacy was determined by prolonged survival times of the test animals or reduced tumor mass as compared to negative controls. Test groups consisted of 10 mice. Control groups consisted of 20 mice. Animals were of one sex and of similar weight. Prior to testing, the tumor cell lines were propagated in BALB/cj mice. Tumor implants were aliquots of a donor pool brei,
For the C-26 SC trial, the tumor was implanted SC into mice on day 0. The test compound was administered four times a day IP from day 1 to day 9 for a total of nine days. BCNU was administered four times a day on days 1, 5, and 9. The mean tumor masses were determined on day 11 and day 21, and the experiment terminated on day 60. The mean tumor mass (MTM) inhibition value of % MTM(T/C) was calculated, which value represents the ratio of treated to control group MTM's expressed as a percentage.

[5] = tested on: C-26 colon adenocarcinoma; experiment: In vivo activity against C-26 implanted intraperitoneally (Example 44); set-up: species or system mouse
Description: as §8, §9
In the IP trials, the mean survival time (MST) of the groups of mice was determined, not counting animals surviving at the conclusion of the trial, and the mean lifespan comparison value of % MST(T/C) calculated, which value represents the ratio of treated to control group MST's expressed as a percentage.
For C-26 colon adenocarcinoma, the tumor was implanted into CD2 F1 mice, IP and SC in separate trials. For the C-26 IP trial, the tumor was implanted IP on day 0. The test compound were administered four times a day IP from day 1 to day 9 for a total of nine days. BCNU was administered four times a day on days 1, 5 and 9.

[6] = tested on: P388 mouse leukemia cell line; experiment: In vitro cytotoxicity (MTT), P388; assay type: cell-based; details: P388, 72 h, read-out: In Vitro Cytotoxicity (IC50)
Description: as §1, §2, §3, §4, §5, §6
(§10) Compounds from Examples 4, 6, 8, 9 and 10 were additionally tested against human and murine tumor cell lines A549, HT-29, P388-D1, P388, P388-ADR(0.0), P388-ADR(0.1) and B16F109. (P388 is a mouse leukemia cell line similar to P388-D1, but animal-passaged; P388-ADR (0.0) is an ADRIAMYCIN-resistant variant of P388, the inoculum of which is grown in drug-free medium; P388-ADR (0.1) is an ADRIAMYCIN-resistant variant of P388, the inoculum of which is grown in medium with 0.1 mcg.ml ADRIAMYCIN; and B16F10 is a mouse melanoma.) The results are presented in Table 2; as shown in the table, the compounds of the present invention are effective cytotoxic agents even against the ADRIAMYCIN-resistant cell line P388-ADR.

[7] = tested on: P388-ADR(0.0), ADRIAMYCIN-resistant variant of P388; experiment: In vitro cytotoxicity (MTT), P388-ADR(0.0); assay type: cell-based; details: Mus musculus, 72 h, inoculum grown in drug-free medium, Table 2
Description: as §1, §2, §3, §4, §5, §6, §10

B16F10 mouse melanoma = experiment: In vitro cytotoxicity (MTT), B16F10; assay type: cell-based; details: B16-F10, 72 h, read-out: In Vitro Cytotoxicity (IC50)
Description: as §1, §2, §3, §4, §5, §6, §10

[8] = read-out: In Vitro Cytotoxicity (IC50), A549, Table 1, three day MTT assay
[9] = read-out: In Vitro Cytotoxicity (IC50), HT-29, Table 1, three day MTT assay
[10] = 10 mg/kg, compound 37 days 1-9, BCNU days 1, 5, 9
[11] = read-out: In Vitro Cytotoxicity (IC50), A549, Table 2, ADR: average of two tests
[12] = read-out: In Vitro Cytotoxicity (IC50), HT-29, Table 2, ADR: average of two tests

| SMILES | IC50 [6] | IC50 [1, 11] | IC50 [2, 12] | IC50 (B16F10 mouse melanoma) | other results |
| --- | --- | --- | --- | --- | --- |
| CCOC(=O)c1cn2c3c(c(N4CCC(NC(C)=O)C4)c(F)cc3c1=O)Oc1cc(C)ccc1-2 (stereo not drawn) [6, step 2, Ethyl 1-(3-acetamidopyrrolidin-1-yl)-2-fluoro-9-methyl-4-oxo-4H-quino[2,3,4-i,j][1,4]benzoxazine-5-carboxylate] | – | – | – | – | IC50 [1, 8]: 1.01 µg/mL (≈ 2.17 µM); IC50 [2, 9]: 0.64 µg/mL (≈ 1.37 µM); IC50 ([3]; Table 1, three day MTT assay): 0.65 µg/mL (≈ 1.4 µM) |
| O=NN(CCCl)C(=O)NCCCl [BCNU, 1,3-bis(2-chloroethyl)-1-nitrosourea, reference compound] | – | – | – | – | % MTM(T/C) ([4]; day 11): 1%; MTM ([4]; day 11): 2 mg; % MTM(T/C) ([4]; day 21): 7%; MTM ([4]; day 21): 244 mg; % MST(T/C) [5, 10]: 201%; MST [5, 10]: 41.4; test animals that survived the trial ([5]; BCNU 10 mg/kg (footnote b)): One of ten test animals survived the trial |
| Cc1ccc2c(c1)-n1cc(C(=O)O)c(=O)c3cc(F)c(N4CCC(N)C4)c(c31)O2 (stereo not drawn) [Example 4, 1-(3-aminopyrrolidin-1-yl)-2-fluoro-8-methyl-4-oxo-4H-quino[2,3,4-i,j][1,4]benzoxazine-5-carboxylic acid hydrochloride] | 0.0384 µg/mL | 0.122 µg/mL | 0.0431 µg/mL | 0.0221 µg/mL | IC50 [7]: 0.24 µg/mL |
| CCOC(=O)c1cn2c3c(c(N4CCC(NC(C)=O)C4)c(F)cc3c1=O)Oc1cc([N+](=O)[O-])ccc1-2 (stereo not drawn) [Example 5, Ethyl 1-(3-acetamidopyrrolidin1-yl)-2-fluoro-9-nitro-4-oxo-4H-quino[2,3,4-i,j][1,4]benzoxazine-5-carboxylate] | – | – | – | – | IC50 [1, 8]: 0.13 µg/mL (≈ 0.262 µM); IC50 [2, 9]: 0.078 µg/mL (≈ 0.157 µM); IC50 ([3]; Table 1, three day MTT assay): 0.011 µg/mL (≈ 0.0222 µM) |
| NC1CCN(c2c(F)cc3c(=O)c(C(=O)O)cn4c3c2Oc2cc(F)ccc2-4)C1 (stereo not drawn) [Example 7, 1-(3-aminopyrrolidin-1-yl)-2,9-difluoro-4-oxo-4H-quino[2,3,4-i,j][1,4]benzoxazine-5-carboxylic acid hydrochloride] | – | 4.1 µg/mL | 0.2 µg/mL | – | IC50 [1, 8]: 4.1 µg/mL; IC50 [2, 9]: 0.21 µg/mL; IC50 ([3]; Table 1, three day MTT assay): 0.11 µg/mL; IC50 ([3]; Table 2, ADR value marked *: single test): 0.11 µg/mL |
| CCC[C@H](N)C(=O)NC1CCN(c2c(F)cc3c(=O)c(C(=O)O)cn4c3c2Oc2cc(C)ccc2-4)C1 (stereo partly drawn) [Example 10, 1-(3-norvalylaminopyrrolidin-1-yl)-2-fluoro-9-methyl-4-oxo-4H-quino[2,3,4-i,j][1,4]benzoxazine-5-carboxylic acid hydrochloride] | 0.108 µg/mL | 0.187 µg/mL | 0.0875 µg/mL | 0.0573 µg/mL | IC50 [7]: 0.447 µg/mL |
| Cc1cc(C)c2c(c1)-n1cc(C(=O)O)c(=O)c3cc(F)c(N4CCC(N)C4)c(c31)O2 (stereo not drawn) [Example 15, 1-(3-aminopyrrolidin-1-yl)-8,10-dimethyl-2-fluoro-4-oxo-4H-quino[2,3,4-i,j][1,4]benzoxazine-5-carboxylic acid hydrochloride] | 0.012 µg/mL | 0.034 µg/mL | 0.015 µg/mL | 0.015 µg/mL | – |
| N[C@H]1CCN(c2c(F)cc3c(=O)c(C(=O)O)cn4c3c2Oc2ccccc2-4)C1 [Example 16, 1((3S)-3-aminopyrrolidin-1-yl)-2-fluoro-4-oxo-4H-quino[2,3,4-i,j][1,4]benzoxazine-5-carboxylic acid hydrochloride] | 0.017 µg/mL | 0.23 µg/mL | 0.055 µg/mL | 0.018 µg/mL | IC50 [7]: 0.12 µg/mL |
| N[C@@H]1CCN(c2c(F)cc3c(=O)c(C(=O)O)cn4c3c2Oc2ccccc2-4)C1 [Example 17, 1-((3R)-3-aminopyrroidin-1-yl)-2-fluoro-4-oxo-4H-quino[2,3,4-i,j][1,4]benzoxazine-5-carboxylic acid hydrochloride] | 0.021 µg/mL | 0.042 µg/mL | 0.068 µg/mL | 0.011 µg/mL | IC50 [7]: 0.1 µg/mL |
| Cc1ccc2c(c1)Oc1c(N3CC[C@@H](N)C3)c(F)cc3c(=O)c(C(=O)O)cn-2c13 [Example 19, 1-((3R)-3-aminopyrrolidin-1-yl)-2-fluoro-9-methyl-4-oxo-4H-quino[2,3,4-i,j][1,4]benzoxazine-5-carboxylic acid hydrochloride] | 0.047 µg/mL | 0.24 µg/mL | 0.052 µg/mL | 0.049 µg/mL | – |
| CC(C)(C)c1ccc2c(c1)-n1cc(C(=O)O)c(=O)c3cc(F)c(N4CCC(N)C4)c(c31)O2 (stereo not drawn) [Example 21, 1-(3-aminopyrrolidin-1-yl)-8-t-butyl-2-flouro-4-oxo-4H-quino[2,3,4-i,j][1,4]benzoxazine-5-carboxylic acid hydrochloride] | 0.063 µg/mL | 0.247 µg/mL | 0.078 µg/mL | 0.045 µg/mL | – |
| NC1CCN(c2c(F)cc3c(=O)c(C(=O)Nc4ccc(F)cc4F)cn4c3c2Oc2ccccc2-4)C1 (stereo not drawn) [Example 30, 1-(3-aminopyrrolidin-1-yl)-2-fluoro-4-oxo-4H-quino[2,3,4-i,j][1,4]benzoxazine-5-(N-2,4-difluorphenyl)carboxamide hydrochloride] | 0.6 µg/mL | 4.1 µg/mL | 1.6 µg/mL | 1.3 µg/mL | – |
| NC1CCN(c2c(F)cc3c(=O)c(C(=O)O)cn4c3c2Oc2cc3c(cc2-4)OCO3)C1 (stereo not drawn) [Example 32, 1(3-aminopyrrolidin-1-yl)-2-fluoro-8,9-methylenedioxy-4-oxo-4H-quino[2,3,4-i,j][1,4]benzoxazine-5-carboxylic acid hydrochloride] | 0.022 µg/mL | 0.134 µg/mL | 0.042 µg/mL | 0.018 µg/mL | – |
| CCOC(=O)c1cn2c3c(c(N4CCC(N)C4)c(F)cc3c1=O)Oc1cc3c(cc1-2)OCO3 (stereo not drawn) [Example 35, Ethyl 1-(3-aminopyrrolidin-1-yl)-2-fluoro-8,9-methylenedioxy-4-oxo-4H-quino[2,3,4-i,j][1,4]benzoxazine-5-carboxylate] | 0.034 µg/mL (≈ 0.075 µM) | 0.26 µg/mL (≈ 0.573 µM) | 0.093 µg/mL (≈ 0.205 µM) | 0.077 µg/mL (≈ 0.17 µM) | – |
